Measurements taken from patent publication US11571423B2, “Small molecule modulators of human sting” (Curadev Pharma Limited, priority 2017, dated 2023).

Assays:
[1] = biological target: hSTING(R232) (Homo sapiens, UniProt Q86WV6, H232R); assay: Luciferase reporter assay in HEK293T-hSTING-Luciferase cells, R232 (wild type) human STING; format: cell-based; conditions: 20 hr stimulation, read-out: R232 human activity (EC50 range)
Summary of the method: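 After 20 hr compound stimulation of 5×10^5 cells, secreted luciferase in the supernatant was measured by luminescence; values are fold-induction over baseline and EC50. The line is a clonal HEK293T stably carrying a STING plasmid (pUNO-1) and a luciferase reporter under five tandem ISREs fused to an ISG54 promoter.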

[2] = biological target: cynomolgus monkey STING protein (Macaca fascicularis, UniProt A0A2R3XZA6); assay: Luciferase reporter assay, cynomolgus monkey STING overexpressed in HEK293T cells; format: cell-based; conditions: cynomolgus monkey STING overexpressed in HEK293T cells; read-out: Cynomolgus monkey STING activity (EC50 range)
Sequence of cynomolgus monkey STING protein (A0A2R3XZA6 entry or part of it): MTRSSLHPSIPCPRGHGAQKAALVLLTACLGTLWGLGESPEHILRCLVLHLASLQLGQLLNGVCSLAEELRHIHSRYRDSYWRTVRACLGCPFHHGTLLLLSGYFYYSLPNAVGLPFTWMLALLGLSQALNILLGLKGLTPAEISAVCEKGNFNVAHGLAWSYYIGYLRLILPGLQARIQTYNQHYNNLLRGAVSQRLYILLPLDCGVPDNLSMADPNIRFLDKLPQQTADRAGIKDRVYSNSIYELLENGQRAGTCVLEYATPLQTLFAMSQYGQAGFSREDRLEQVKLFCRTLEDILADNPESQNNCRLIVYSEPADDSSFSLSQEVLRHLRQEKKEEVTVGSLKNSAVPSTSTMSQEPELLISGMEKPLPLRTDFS
Method: 5×10^5 clonally selected HEK293T-hSTING-Luciferase cells were seeded in 384-well plates in growth medium and stimulated with novel compounds. After 20 hr of stimulation supernatant were removed and secretary reporter gene activity were measured using the Quanti-Luc detection system (Invivogen) on a Spectramax i3X luminometer.
In the tables below, EC50 value ranges for exemplary compounds are given.
Selected compounds were further tested against cynomolgus monkey STING protein overexpressed in HEK293T cells.

Sequence of hSTING(R232) (Q86WV6 whole entry H232R, the tested form may be a part): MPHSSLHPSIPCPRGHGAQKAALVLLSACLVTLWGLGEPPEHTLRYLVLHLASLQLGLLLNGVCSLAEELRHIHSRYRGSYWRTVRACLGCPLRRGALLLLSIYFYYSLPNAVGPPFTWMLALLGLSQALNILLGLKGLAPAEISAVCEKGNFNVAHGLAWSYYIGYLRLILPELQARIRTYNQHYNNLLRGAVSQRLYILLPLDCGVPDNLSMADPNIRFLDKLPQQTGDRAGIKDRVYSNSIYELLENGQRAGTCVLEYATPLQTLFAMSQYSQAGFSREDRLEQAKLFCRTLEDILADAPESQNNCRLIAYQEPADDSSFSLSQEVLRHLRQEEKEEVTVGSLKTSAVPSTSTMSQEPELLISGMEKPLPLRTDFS

SMILES | EC50 [1] [nM] | EC50 [2] [nM]
COc1cc(F)c(CNC(=O)c2ccc3c(c2)N(Cc2c(F)cc(OC)cc2F)C(=O)N(C)[C@H]3C)c(F)c1 [Example 149, (S)—N,1-bis(2,6-difluoro-4-methoxybenzyl)-3,4-dimethyl-2-oxo-1,2,3,4-tetrahydroquinazoline-7-carboxamide] | < 1000 | < 1000
Cc1cccc(CN2C(=O)N(C)C(C)c3ccc(C(=O)NCc4c(F)cc(F)cc4F)cc32)c1F (stereo not shown) [Example 164, 1-(2-fluoro-3-methylbenzyl)-3,4-dimethyl-2-oxo-N-(2,4,6-trifluorobenzyl)-1,2,3,4-tetrahydroquinazoline-7-carboxamide] | < 1000 | < 1000
COc1cc(F)c(CN2C(=O)N(C)C(C)c3ccc(C(=O)NCc4c(F)cc(F)cc4F)cc32)c(F)c1 (stereo not shown) [Example 165, 1-(2,6-difluoro-4-methoxybenzyl)-3,4-dimethyl-2-oxo-N-(2,4,6-trifluorobenzyl)-1,2,3,4-tetrahydroquinazoline-7-carboxamide] | < 1000 | < 1000
COc1ccc(F)c(CN2C(=O)N(C)C(C)c3ccc(C(=O)NCc4c(F)cc(F)cc4F)cc32)c1 (stereo not shown) [Example 166, 1-(2-fluoro-5-methoxybenzyl)-3,4-dimethyl-2-oxo-N-(2,4,6-trifluorobenzyl)-1,2,3,4-tetrahydroquinazoline-7-carboxamide] | < 1000 | 1000 to 10000
Cc1cccc(CN2C(=O)N(C)[C@@H](C)c3ccc(C(=O)NCc4c(F)cc(F)cc4F)cc32)c1F [Example 168, (S)-1-(2-fluoro-3-methylbenzyl)-3,4-dimethyl-2-oxo-N-(2,4,6-trifluorobenzyl)-1,2,3,4-tetrahydroquinazoline-7-carboxamide] | < 1000 | < 1000
Cc1ncc(Cl)c(CN2C(=O)N(C)C(C)c3ccc(C(=O)NCc4c(F)cc(F)cc4F)cc32)c1F (stereo not shown) [Example 176, 1-((5-chloro-3-fluoro-2-methylpyridin-4-yl)methyl)-3,4-dimethyl-2-oxo-N-(2,4,6-trifluorobenzyl)-1,2,3,4-tetrahydroquinazoline-7-carboxamide] | < 1000 | < 1000
COc1ccc(F)c(F)c1CN1C(=O)N(C)C(C)c2ccc(C(=O)NCc3c(F)cc(F)cc3F)cc21 (stereo not shown) [Example 178, 1-(2,3-difluoro-6-methoxybenzyl)-3,4-dimethyl-2-oxo-N-(2,4,6-trifluorobenzyl)-1,2,3,4-tetrahydroquinazoline-7-carboxamide] | < 1000 | < 1000
COc1ccc(F)c(CN2C(=O)N(C)[C@@H](C)c3ccc(C(=O)NCc4c(F)cc(F)cc4F)cc32)c1 [Example 183, (S)-1-(2-fluoro-5-methoxybenzyl)-3,4-dimethyl-2-oxo-N-(2,4,6-trifluorobenzyl)-1,2,3,4-tetrahydroquinazoline-7-carboxamide] | < 1000 | < 1000
COc1ncc(Cl)c(CN2C(=O)N(C)[C@@H](C)c3ccc(C(=O)NCc4c(F)cc(F)cc4F)cc32)c1F [Example 184, (S)-1-((5-chloro-3-fluoro-2-methoxypyridin-4-yl)methyl)-3,4-dimethyl-2-oxo-N-(2,4,6-trifluorobenzyl)-1,2,3,4-tetrahydroquinazoline-7-carboxamide] | < 1000 | < 1000
C[C@H]1c2ccc(C(=O)NCc3c(F)cc(F)cc3F)cc2N(Cc2c(F)cc(OCCOC(=O)CN)cc2F)C(=O)N1C [Example 187, (S)-2-(4-((3,4-dimethyl-2-oxo-7-((2,4,6-trifluorobenzyl)carbamoyl)-3,4-dihydroquinazolin-1(2H)-yl)methyl)-3,5-difluorophenoxy)ethyl 2-aminoacetate] | < 1000 | < 1000
CC1c2ccc(C(=O)NCc3c(F)cc(F)cc3F)cc2N(Cc2ccccc2F)C(=O)N1C (stereo not shown) [Example 202, 1-(2-fluorobenzyl)-3,4-dimethyl-2-oxo-N-(2,4,6-trifluorobenzyl)-1,2,3,4-tetrahydroquinazoline-7-carboxamide] | < 1000 | < 1000
CC1c2ccc(C(=O)NCc3c(F)cc(F)cc3F)cc2N(Cc2c(F)cccc2C(F)(F)F)C(=O)N1C (stereo not shown) [Example 209, 1-(2-fluoro-6-(trifluoromethyl)benzyl)-3,4-dimethyl-2-oxo-N-(2,4,6-trifluorobenzyl)-1,2,3,4-tetrahydroquinazoline-7-carboxamide] | < 1000 | < 1000
CC1c2ccc(C(=O)NCc3c(F)cc(F)cc3F)cc2N(Cc2cc(O)ccc2F)C(=O)N1C (stereo not shown) [Example 231, 1-(2-fluoro-5-hydroxybenzyl)-3,4-dimethyl-2-oxo-N-(2,4,6-trifluorobenzyl)-1,2,3,4-tetrahydroquinazoline-7-carboxamide] | < 1000 | < 1000
C[C@H]1c2ccc(C(=O)NCc3c(F)cc(F)cc3F)cc2N(Cc2c(OCCO)ccc(F)c2F)C(=O)N1C [Example 254, (S)-1-(2,3-difluoro-6-(2-hydroxyethoxy)benzyl)-3,4-dimethyl-2-oxo-N-(2,4,6-trifluorobenzyl)-1,2,3,4-tetrahydroquinazoline-7-carboxamide] | < 1000 | 1000 to 10000
C[C@H]1c2ccc(C(=O)NCc3c(F)cc(F)cc3F)cc2N(Cc2c(F)ccc(O)c2F)C(=O)N1C [Example 255, (S)-1-(2,6-difluoro-3-hydroxybenzyl)-3,4-dimethyl-2-oxo-N-(2,4,6-trifluorobenzyl)-1,2,3,4-tetrahydroquinazoline-7-carboxamide] | < 1000 | < 1000
C[C@H]1c2ccc(C(=O)NCc3c(F)cc(F)cc3F)cc2N(Cc2c(F)ccc(OCCO)c2F)C(=O)N1C [Example 256, (S)-1-(2,6-difluoro-3-(2-hydroxyethoxy)benzyl)-3,4-dimethyl-2-oxo-N-(2,4,6-trifluorobenzyl)-1,2,3,4-tetrahydroquinazoline-7-carboxamide] | < 1000 | 1000 to 10000
COc1ccc(F)c(CN2C(=O)N(C)[C@@H](C)c3ccc(C(=O)NCc4c(F)cc(F)cc4F)cc32)c1F [Example 258, (S)-1-(2,6-difluoro-3-methoxybenzyl)-3,4-dimethyl-2-oxo-N-(2,4,6-trifluorobenzyl)-1,2,3,4-tetrahydroquinazoline-7-carboxamide] | < 1000 | < 1000
COc1cc(F)cc(F)c1CN1C(=O)N(C)[C@@H](C)c2ccc(C(=O)NCc3c(F)cc(F)cc3F)cc21 [Example 259, (S)-1-(2,4-difluoro-6-methoxybenzyl)-3,4-dimethyl-2-oxo-N-(2,4,6-trifluorobenzyl)-1,2,3,4-tetrahydroquinazoline-7-carboxamide] | < 1000 | < 1000
C[C@H]1c2ccc(C(=O)NCc3c(F)cc(F)cc3F)cc2N(Cc2c(O)cc(F)cc2F)C(=O)N1C [Example 260, (S)-1-(2,4-difluoro-6-hydroxybenzyl)-3,4-dimethyl-2-oxo-N-(2,4,6-trifluorobenzyl)-1,2,3,4-tetrahydroquinazoline-7-carboxamide] | < 1000 | < 1000
C[C@H]1c2ccc(C(=O)NCc3c(F)cc(F)cc3F)cc2N(Cc2cc(OCCO)ccc2F)C(=O)N1C [Example 263, (S)-1-(2-fluoro-5-(2-hydroxyethoxy)benzyl)-3,4-dimethyl-2-oxo-N-(2,4,6-trifluorobenzyl)-1,2,3,4-tetrahydroquinazoline-7-carboxamide] | < 1000 | 1000 to 10000
COc1cc(F)c(CN2C(=O)N(C)[C@@H](C)c3ccc(C(=O)NCc4c(F)cc(F)cc4F)cc32)cc1OC [Example 265, (S)-1-(2-fluoro-4,5-dimethoxybenzyl)-3,4-dimethyl-2-oxo-N-(2,4,6-trifluorobenzyl)-1,2,3,4-tetrahydroquinazoline-7-carboxamide] | < 1000 | < 1000
C[C@H]1c2ccc(C(=O)NCc3c(F)cc(F)cc3F)cc2N(Cc2c(F)ccc(CO)c2F)C(=O)N1C [Example 269, (S)-1-(2,6-difluoro-3-(hydroxymethyl)benzyl)-3,4-dimethyl-2-oxo-N-(2,4,6-trifluorobenzyl)-1,2,3,4-tetrahydroquinazoline-7-carboxamide] | < 1000 | < 1000
COc1cc(F)c(F)c(CN2C(=O)N(C)[C@@H](C)c3ccc(C(=O)NCc4c(F)cc(F)cc4F)cc32)c1 [Example 270, (S)-1-(2,3-difluoro-5-methoxybenzyl)-3,4-dimethyl-2-oxo-N-(2,4,6-trifluorobenzyl)-1,2,3,4-tetrahydroquinazoline-7-carboxamide] | < 1000 | < 1000
C[C@H]1c2ccc(C(=O)NCc3c(F)cc(F)cc3F)cc2N(Cc2cc(OCCCO)ccc2F)C(=O)N1C [Example 271, (S)-1-(2-fluoro-5-(3-hydroxypropoxy)benzyl)-3,4-dimethyl-2-oxo-N-(2,4,6-trifluorobenzyl)-1,2,3,4-tetrahydroquinazoline-7-carboxamide] | < 1000 | 1000 to 10000
C[C@H]1c2ccc(C(=O)NCc3c(F)cc(F)cc3F)cc2N(Cc2cc(N)ccc2F)C(=O)N1C [Example 273, (S)-1-(5-amino-2-fluorobenzyl)-3,4-dimethyl-2-oxo-N-(2,4,6-trifluorobenzyl)-1,2,3,4-tetrahydroquinazoline-7-carboxamide] | < 1000 | 1000 to 10000
C[C@H]1c2ccc(C(=O)NCc3c(F)cc(F)cc3F)cc2N(Cc2c(F)cc(F)cc2OCCCO)C(=O)N1C [Example 275, (S)-1-(2,4-difluoro-6-(3-hydroxypropoxy)benzyl)-3,4-dimethyl-2-oxo-N-(2,4,6-trifluorobenzyl)-1,2,3,4-tetrahydroquinazoline-7-carboxamide] | < 1000 | > 10000
